The values below come from patent US8017637B2, “Inhibitors of cdc phosphatases” (Ipsen Pharma S.A.S., priority 2004, dated 2011).

Molecules are shown by their SMILES.

The test system of data set [1] is Mia-Paca2 lines (human pancreatic cancer cells). As to the kind of experiment: Anti-proliferative activity, WST1 colorimetric test, Mia-Paca2 cells. The format is cell-based. Particulars: MIA PaCa-2, 96 hours treatment, up to 10 μM, read-out: IC50 on the cell proliferation of the Mia-Paca2 lines. The method, then: (§1) ii) Characterization of Anti-Proliferative Activity:
(§2) By way of example, the effect of a treatment by the compounds of the examples described previously on two lines of human Mia-Paca2 and DU145 cells will be studied. The cell lines DU145 (human prostate cancer cells) and Mia-PaCa2 (human pancreatic cancer cells) were acquired from the American Tissue Culture Collection (Rockville, Md., USA). The cells placed in 80 μl of Dulbecco's Modified Eagle medium (Gibco-Brl, Cergy-Pontoise, France) completed with 10% foetal calf serum inactivated by heating (Gibco-Brl, Cergy-Pontoise, France), 50,000 units/l of penicillin and 50 mg/l streptomycin (Gibco-Brl, Cergy-Pontoise, France), and 2 mM of glutamine (Gibco-Brl, Cergy-Pontoise, France) were seeded on a 96-well plate on day 0. The cells were treated on day 1 for 96 hours at increasing concentrations of each of the compounds to be tested up to 10 μM. At the end of the of this period, quantification of the cell proliferation is evaluated by a colorimetric test based on the cleavage of the tetrazolium salt WST1 by the mitochondrial dehydrogenases in the viable cells leading to the formation of formazan (Boehringer Mannheim, Meylan, France). These tests are carried out in duplicate with 8 determinations per concentration tested. For each compound to be tested, the values included in the linear part of the sigmoid were retained for linear regression analysis and used in order to estimate the inhibitory concentration IC50. The products are solubilized in dimethylsulphoxide (DMSO) at to 10^−2M and finally used in culture with 0.1% DMSO.
Background: Tetrazolium dyes change colour on reduction, which living cells bring about.

Data set [2] relates to DU-145 lines (human prostate cancer cells). As to the kind of experiment: Anti-proliferative activity, WST1 colorimetric test, DU145 cells. The format is cell-based. Particulars: 96 hours treatment, up to 10 μM, read-out: IC50 on the cell proliferation of the DU-145 lines. The method, then:
as §1, §2

In data set [3] the target is T1, purified recombinant enzyme Cdc25-C (MBP-Cdc25C) (Homo sapiens, UniProt P30307).
T1 construct: made in house
T1 sequence (P30307 1-473): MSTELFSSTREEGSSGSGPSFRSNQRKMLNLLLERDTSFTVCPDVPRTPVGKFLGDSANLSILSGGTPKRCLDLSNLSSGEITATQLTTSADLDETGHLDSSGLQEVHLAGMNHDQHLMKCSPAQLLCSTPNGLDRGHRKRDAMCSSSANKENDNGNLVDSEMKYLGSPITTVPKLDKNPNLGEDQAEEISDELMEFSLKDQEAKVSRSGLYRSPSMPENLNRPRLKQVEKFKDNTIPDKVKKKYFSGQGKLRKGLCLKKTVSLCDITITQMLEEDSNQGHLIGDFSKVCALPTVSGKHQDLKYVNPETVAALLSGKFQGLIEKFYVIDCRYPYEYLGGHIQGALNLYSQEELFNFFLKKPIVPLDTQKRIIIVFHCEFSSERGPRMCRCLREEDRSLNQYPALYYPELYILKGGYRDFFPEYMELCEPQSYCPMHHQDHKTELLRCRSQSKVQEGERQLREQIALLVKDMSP
As to the kind of experiment: Measurement of the phosphatase activity of the purified recombinant enzyme Cdc25C (OMFP dephosphorylation, fluorescence). Particulars: OMFP 500 μM, 4 hours at 30° C. The format is biochemical. The procedure: i) Measurement of the Phosphatase Activity of the Purified Recombinant Enzyme Cdc25C
The phosphatase activity of the protein MBP-Cdc25C is evaluated by the dephosphorylation of 3-O-methylfluorescein-phosphate (OMFP) to 3-O-methylfluorescein (OMF) with a determination of the fluorescence at 475 nm of the reaction product. This test makes it possible to identify inhibitors of the recombinant enzyme cdc25. The preparation of the fusion protein MBP-Cdc25C is described in the Patent Application PCT WO 01/44467.
The reaction is carried out in 384-well plate format at a final volume of 50 μl. The protein MBP-Cdc25C (prepared as described above) is preserved in the following elution buffer: 20 mM Tris-HCl pH 7.4; 250 mM NaCl; 1 mM EDTA; 1 mM of dithiothreitol (DTT); 10 mM maltose. It is diluted to a concentration of 60 μM in the following reaction buffer: 50 mM Tris-HCl pH 8.2; 50 mM NaCl; 1 mM DTT; 20% glycerol. Measurement of the background noise is carried out with the buffer without the addition of the enzyme. The products are tested at decreasing concentrations starting from 40 μM. The reaction is initiated by the addition of an OMFP solution at 500 μM final (prepared extemporaneously from a 12.5 mM stock solution in 100% DMSO (Sigma #M2629)). After 4 hours at 30° C. in a single-use 384-well plate, the fluorescence measured at OD 475 nm is read using a Victor^2 plate reader (EGG-Wallac). The determination of the concentration inhibiting the enzyme reaction by 50% is calculated from three independent experiments. Only the values contained in the linear part of the sigmoid are retained for linear regression analysis.

Take `Cc1nc2c(s1)C(=O)C=C(NCCCN(C)CCCNC1=CC(=O)c3sc(C)nc3C1=O)C2=O` [Example 1, 5.5′-[(methylimino)bis(propane-3,1-diylimino)]bis(2-methyl-1,3-benzothiazole-4,7-dione)]: the melting point (as a rule, the temperature of the solid-liquid transition) is 94 to 96 °C. For the same compound, the IC50 in data set [1] was at most 10 µM. In addition, the IC50 in data set [2] is at most 10 µM. In addition, the IC50 in data set [3] is at most 1000 nM.
In the case of `Cc1nc2c(s1)C(=O)C=C(NCCN(C)CCNC1=CC(=O)c3sc(C)nc3C1=O)C2=O` [Example 2, 5.5′-[(methylimino)bis(ethane-2,1-diylimino)]bis(2-methyl-1,3-benzothiazole-4,7-dione)], the melting point lay in the range of 188 to 190 °C. Also, the IC50 in data set [1] was at most 10 µM. Further, the IC50 in data set [2] was at most 10 µM. The IC50 in data set [3] was at most 1000 nM.
Turning to `Cc1nc2c(s1)C(=O)C=C(NCCOCCNC1=CC(=O)c3sc(C)nc3C1=O)C2=O` [Example 3, 5.5′-[oxybis(ethane-2,1-diylimino)]bis(2-methyl-1,3-benzothiazole-4,7-dione)], the IC50 is at most 10 µM in data set [1], at most 10 µM in data set [2] and at most 1000 nM in data set [3].
`Cc1nc2c(s1)C(=O)C=C(NCCCCCNC1=CC(=O)c3sc(C)nc3C1=O)C2=O` [Example 4]: the IC50 in data set [1] is at most 10 µM; in data set [2], at most 10 µM; in data set [3] it was at most 1000 nM.
With `Cc1nc2c(s1)C(=O)C(NCCN(C)CCNC1=CC(=O)c3nc(C)sc3C1=O)=CC2=O` [Example 6, 6.6′-[(methylimino)bis(ethane-2,1-diylimino)]bis(2-methyl-1,3-benzothiazole-4,7-dione)], the IC50 in data set [1] was at most 10 µM; in data set [2], at most 10 µM; in data set [3], at most 5000 nM.
As to `Cc1nc2c(s1)C(=O)C(Br)=C(NCCCN(C)CCCNC1=C(Br)C(=O)c3sc(C)nc3C1=O)C2=O` [Example 17, 5.5′-[(methylimino)bis(propane-3,1-diylimino)]bis(6-bromo-2-methyl-1,3-benzothiazole-4,7-dione)], the IC50 in data set [1] was at most 10 µM; in data set [2], at most 10 µM; in data set [3] it was at most 1000 nM.
Consider `CN(CCCN(C)C1=CC(=O)c2nc(-c3cc(F)ccc3F)oc2C1=O)CCCN(C)C1=CC(=O)c2nc(-c3cc(F)ccc3F)oc2C1=O` [Example 23, 6.6′-{(methylimino)bis[propane-3,1-diyl(methylimino)]}bis[2-(2,5-difluorophenyl)-1,3-benzoxazole-4,7-dione]], for which, in data set [3], the IC50 is at most 5000 nM.
Regarding `CN(CCCNC1=CC(=O)c2sc(C(=O)N3CCN(C(=O)N4CCOCC4)CC3)nc2C1=O)CCCNC1=CC(=O)c2sc(C(=O)N3CCN(C(=O)N4CCOCC4)CC3)nc2C1=O` [Example 27, 5.5′-[(methylimino)bis(propane-3,1-diylimino)]bis(2-{[4-(morpholin-4-ylcarbonyl)piperazin-1-yl]carbonyl}-1,3-benzothiazole-4,7-dione)], the melting point fell in the range of 157 to 158 °C. In data set [1], the IC50 is at most 10 µM. The IC50 in data set [3] was at most 1000 nM.
On to `CN(CCCNC1=CC(=O)c2sc(C(=O)N3CCN(C(=O)C4CCCO4)CC3)nc2C1=O)CCCNC1=CC(=O)c2sc(C(=O)N3CCN(C(=O)C4CCCO4)CC3)nc2C1=O` (stereo not drawn) [Example 28, 5.5′-[(methylimino)bis(propane-3,1-diylimino)]bis(2-{[4-(tetrahydrofuran-2-ylcarbonyl)piperazin-1-yl]carbonyl}-1,3-benzothiazole-4,7-dione)], for which the melting point fell in the range of 152 to 153 °C. Besides, the IC50 in data set [1] was at most 10 µM. Further, in data set [3], the IC50 is at most 1000 nM.
For `Cc1nc2c(s1)C(=O)C=C(NCCCN(C)CCCNC1=CC(=O)c3nc(C(=O)N4CCCC4)sc3C1=O)C2=O` [Example 44, 5-({3-[(3-{[4,7-dioxo-2-(pyrrolidin-1-ylcarbonyl)-4,7-dihydro-1,3-benzothiazol-6-yl]amino}propyl)(methyl)amino]propyl}amino)-2-methyl-1,3-benzothiazole-4,7-dione], the IC50 in data set [1] was at most 10 µM; in data set [2] it was at most 10 µM; in data set [3], at most 1000 nM.
For `COc1ccc(CNC(=O)c2nc3c(s2)C(=O)C=C(NCCCN(C)CCCNC2=CC(=O)c4sc(C)nc4C2=O)C3=O)cc1` [Example 45, N-(4-methoxybenzyl)-5-{[3-(methyl{3-[(2-methyl-4,7-dioxo-4,7-dihydro-1,3-benzothiazol-5-yl)amino]propyl}amino)propyl]amino}-4,7-dioxo-4,7-dihydro-1,3-benzothiazole-2-carboxamide], the values for the IC50 in data set [1], in data set [2] and in data set [3] were at most 10 µM, at most 10 µM and at most 1000 nM, respectively.
Take `COc1ccc2c(c1)CCCN2C(=O)c1nc2c(s1)C(=O)C=C(NCCCN(C)CCCNC1=CC(=O)c3sc(C)nc3C1=O)C2=O` [Example 47, 2-[(6-methoxy-3,4-dihydroquinolin-1(2H)-yl)carbonyl]-5-{[3-(methyl{3-[(2-methyl-4,7-dioxo-4,7-dihydro-1,3-benzothiazol-5-yl)amino]propyl}amino)propyl]amino}-1,3-benzothiazole-4,7-dione]: in data set [3], the IC50 was at most 1000 nM.
For the compound `COc1ccc(C(=O)N2CCN(C(=O)c3nc4c(s3)C(=O)C=C(NCCCN(C)CCCNC3=CC(=O)c5sc(C)nc5C3=O)C4=O)CC2)cc1` [Example 48, 2-{[4-(4-methoxybenzoyl)piperazin-1-yl]carbonyl}-5-{[3-(methyl{3-[(2-methyl-4,7-dioxo-4,7-dihydro-1,3-benzothiazol-5-yl)amino]propyl}amino)propyl]amino}-1,3-benzothiazole-4,7-dione], the values for the IC50 in data set [1], in data set [2] and in data set [3] were at most 10 µM, at most 10 µM and at most 1000 nM, respectively.
Turning to `Cc1nc2c(s1)C(=O)C=C(NCCCN(C)CCCNC1=CC(=O)c3scnc3C1=O)C2=O` [Example 50, 5-({3-[{3-[(4,7-dioxo-4,7-dihydro-1,3-benzothiazol-5-yl)amino]propyl}(methyl)amino]propyl}amino)-2-methyl-1,3-benzothiazole-4,7-dione], the IC50 in data set [1] is at most 10 µM; in data set [2], at most 10 µM; in data set [3], at most 1000 nM.
As to `Cc1nc2c(s1)C(=O)C=C(NCCCN(C)CCCNC1=CC(=O)c3nc(-c4cc(F)ccc4F)oc3C1=O)C2=O` [Example 51, 2-(2,5-difluorophenyl)-6-{[3-(methyl{3-[(2-methyl-4,7-dioxo-4,7-dihydro-1,3-benzothiazol-5-yl)amino]propyl}amino)propyl]amino}-1,3-benzoxazole-4,7-dione], the IC50 in data set [1] was at most 10 µM; in data set [3], at most 1000 nM.
In the case of `Cc1nc2c(s1)C(=O)C(NCCCN(C)CCCNC1=CC(=O)c3nc(-c4cc(F)ccc4F)oc3C1=O)=CC2=O` [Example 53, 2-(2,5-difluorophenyl)-6-{[3-(methyl{3-[(2-methyl-4,7-dioxo-4,7-dihydro-1,3-benzothiazol-6-yl)amino]propyl}amino)propyl]amino}-1,3-benzoxazole-4,7-dione], the IC50 was at most 10 µM in data set [1], at most 10 µM in data set [2] and at most 1000 nM in data set [3].
